These molecules were tested against T1, Chitinase B (Serratia marcescens, UniProt P11797) (assay: Inhibition of Serratia marcescens chitinase B).
T1 sequence (P11797 whole entry): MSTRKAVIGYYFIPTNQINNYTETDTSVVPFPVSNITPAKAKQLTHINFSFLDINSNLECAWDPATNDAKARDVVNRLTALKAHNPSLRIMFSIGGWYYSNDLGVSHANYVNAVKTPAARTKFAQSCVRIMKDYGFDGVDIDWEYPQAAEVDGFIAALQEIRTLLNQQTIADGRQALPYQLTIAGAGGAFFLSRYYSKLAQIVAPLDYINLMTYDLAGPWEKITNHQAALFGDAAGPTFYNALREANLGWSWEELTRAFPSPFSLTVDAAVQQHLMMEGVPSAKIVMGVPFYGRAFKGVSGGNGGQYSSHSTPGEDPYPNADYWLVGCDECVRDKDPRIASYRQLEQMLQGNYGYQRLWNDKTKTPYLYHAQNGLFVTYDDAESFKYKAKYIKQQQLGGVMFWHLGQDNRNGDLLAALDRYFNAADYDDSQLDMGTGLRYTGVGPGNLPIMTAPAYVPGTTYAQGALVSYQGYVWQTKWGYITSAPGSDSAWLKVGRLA
`CNC(=O)NC(N)=NCCC[C@@H]1NC(=O)[C@@H](CC(C)C)NC(=O)C[C@@H](C(=O)O)NC(=O)C[C@@H](C(=O)O)NC(=O)[C@H](Cc2ccccc2)N(C)C1=O` gave an IC50 of 1.9 µM.
For `CNC(=O)NC(N)=NCCC[C@@H]1NC(=O)[C@@H](C(C)C)NC(=O)C[C@@H](C(=O)O)NC(=O)C[C@@H](C(=O)O)NC(=O)[C@H](Cc2ccccc2)N(C)C1=O`, the IC50 was 6.1 µM.
Work on `CNC(=O)NC(=N)NCCC[C@@H]1NC(=O)[C@@H](CCSC)NC(=O)C[C@@H](C(=O)O)NC(=O)C[C@@H](C(=O)O)NC(=O)[C@H](Cc2ccccc2)N(C)C1=O` yielded an IC50 of 10 µM.
`CNC(=O)NC(N)=NCCC[C@@H]1NC(=O)[C@@H](CC(C)C)NC(=O)C[C@@H](C(=O)N2CCC(Cc3ccccc3)CC2)NC(=O)C[C@@H](C(=O)O)NC(=O)[C@H](Cc2ccccc2)N(C)C1=O` was tested, and the IC50 was 0.23 µM.
Work on `CNC(=O)NC(N)=NCCC[C@@H]1NC(=O)[C@@H](Cc2ccccc2)NC(=O)C[C@@H](C(=O)O)NC(=O)C[C@@H](C(=O)O)NC(=O)[C@H](Cc2ccccc2)N(C)C1=O` yielded an IC50 of 9.9 µM.
`CNC(=O)NC(N)=NCCC[C@@H]1NC(=O)[C@@H](C)NC(=O)C[C@@H](C(=O)N2CCC(Cc3ccccc3)CC2)NC(=O)C[C@@H](C(=O)O)NC(=O)[C@H](Cc2ccccc2)N(C)C1=O` was tested, and the IC50 was 1.3 µM.
In the case of `CNC(=O)NC(=N)NCCC[C@@H]1NC(=O)[C@@H](Cc2c[nH]c3ccccc23)NC(=O)C[C@@H](C(=O)O)NC(=O)C[C@@H](C(=O)O)NC(=O)[C@H](Cc2ccccc2)N(C)C1=O`, the IC50 is reported as 4.5 µM.
